Assays:
Settings in all cases: Compound concentration 1.0 uM
[1] = target: T1, Interleukin-1 receptor-associated kinase 4 (Homo sapiens) (UniProt Q9NWZ3)
T1 sequence (whole entry): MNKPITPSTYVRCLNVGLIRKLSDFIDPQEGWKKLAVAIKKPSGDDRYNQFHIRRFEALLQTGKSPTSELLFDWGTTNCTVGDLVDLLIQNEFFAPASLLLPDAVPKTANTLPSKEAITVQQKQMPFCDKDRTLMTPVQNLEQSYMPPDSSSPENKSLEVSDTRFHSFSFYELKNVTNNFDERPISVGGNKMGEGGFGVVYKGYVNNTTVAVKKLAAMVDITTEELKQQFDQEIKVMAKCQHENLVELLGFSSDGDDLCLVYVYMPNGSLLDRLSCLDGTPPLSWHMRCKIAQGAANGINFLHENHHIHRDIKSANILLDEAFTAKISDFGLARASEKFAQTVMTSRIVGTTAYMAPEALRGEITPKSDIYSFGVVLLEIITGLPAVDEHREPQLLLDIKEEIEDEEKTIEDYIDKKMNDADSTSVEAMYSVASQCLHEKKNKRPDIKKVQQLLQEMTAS

[2] = target: Interferon-induced, double-stranded RNA-activated protein kinase (Homo sapiens) (UniProt P19525)
Interferon-induced, double-stranded RNA-activated protein kinase (Homo sapiens), sequence (P19525 whole entry): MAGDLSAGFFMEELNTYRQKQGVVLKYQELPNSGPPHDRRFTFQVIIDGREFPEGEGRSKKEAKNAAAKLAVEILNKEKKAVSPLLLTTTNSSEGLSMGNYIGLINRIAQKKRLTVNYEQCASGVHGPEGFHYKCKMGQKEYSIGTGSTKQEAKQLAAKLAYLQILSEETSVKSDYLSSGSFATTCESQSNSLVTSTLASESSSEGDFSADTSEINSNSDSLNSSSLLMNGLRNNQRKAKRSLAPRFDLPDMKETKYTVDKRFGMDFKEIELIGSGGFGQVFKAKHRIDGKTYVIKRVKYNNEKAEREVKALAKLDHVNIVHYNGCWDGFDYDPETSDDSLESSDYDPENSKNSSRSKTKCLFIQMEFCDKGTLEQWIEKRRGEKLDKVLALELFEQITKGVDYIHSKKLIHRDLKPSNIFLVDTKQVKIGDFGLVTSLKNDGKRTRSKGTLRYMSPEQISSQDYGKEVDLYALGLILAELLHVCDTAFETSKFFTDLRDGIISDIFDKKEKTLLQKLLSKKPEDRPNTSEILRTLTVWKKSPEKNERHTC

[3] = target: Dual specificity protein kinase CLK4 (Homo sapiens) (UniProt Q9HAZ1)
Dual specificity protein kinase CLK4 (Homo sapiens), sequence (Q9HAZ1 whole entry, looked up): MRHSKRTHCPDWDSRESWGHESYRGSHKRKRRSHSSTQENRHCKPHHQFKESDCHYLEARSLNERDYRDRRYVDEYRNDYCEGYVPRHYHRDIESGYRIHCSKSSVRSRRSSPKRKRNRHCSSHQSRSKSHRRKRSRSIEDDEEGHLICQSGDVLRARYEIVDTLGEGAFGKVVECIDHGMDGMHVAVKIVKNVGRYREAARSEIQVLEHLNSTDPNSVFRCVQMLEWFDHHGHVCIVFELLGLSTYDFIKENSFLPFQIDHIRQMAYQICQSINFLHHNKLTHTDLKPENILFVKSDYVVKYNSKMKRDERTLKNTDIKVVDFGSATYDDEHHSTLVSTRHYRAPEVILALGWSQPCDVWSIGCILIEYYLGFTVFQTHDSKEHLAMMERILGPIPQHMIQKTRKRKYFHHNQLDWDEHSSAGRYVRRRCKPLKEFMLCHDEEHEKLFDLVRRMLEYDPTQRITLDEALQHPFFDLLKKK

[4] = target: Serine/threonine-protein kinase SIK3 (Homo sapiens) (UniProt Q9Y2K2)
[5] = target: Protein-tyrosine kinase 6 (Homo sapiens) (UniProt Q13882)
Protein-tyrosine kinase 6 (Homo sapiens), sequence (Q13882 whole entry, looked up): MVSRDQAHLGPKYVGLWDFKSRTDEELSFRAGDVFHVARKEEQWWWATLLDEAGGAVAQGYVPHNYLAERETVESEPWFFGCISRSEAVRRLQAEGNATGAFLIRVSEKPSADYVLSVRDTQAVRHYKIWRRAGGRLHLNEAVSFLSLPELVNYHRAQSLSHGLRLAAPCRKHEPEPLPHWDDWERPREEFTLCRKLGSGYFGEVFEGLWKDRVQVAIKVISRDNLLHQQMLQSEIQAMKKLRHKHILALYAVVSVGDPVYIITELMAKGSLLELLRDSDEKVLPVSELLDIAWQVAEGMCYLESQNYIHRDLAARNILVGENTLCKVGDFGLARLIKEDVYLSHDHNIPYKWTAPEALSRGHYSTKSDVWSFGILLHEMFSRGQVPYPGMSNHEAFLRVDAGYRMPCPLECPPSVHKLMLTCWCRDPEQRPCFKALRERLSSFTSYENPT

[6] = target: T2, Inhibitor of nuclear factor kappa-B kinase subunit beta (Homo sapiens) (UniProt O14920)
T2 sequence (whole entry): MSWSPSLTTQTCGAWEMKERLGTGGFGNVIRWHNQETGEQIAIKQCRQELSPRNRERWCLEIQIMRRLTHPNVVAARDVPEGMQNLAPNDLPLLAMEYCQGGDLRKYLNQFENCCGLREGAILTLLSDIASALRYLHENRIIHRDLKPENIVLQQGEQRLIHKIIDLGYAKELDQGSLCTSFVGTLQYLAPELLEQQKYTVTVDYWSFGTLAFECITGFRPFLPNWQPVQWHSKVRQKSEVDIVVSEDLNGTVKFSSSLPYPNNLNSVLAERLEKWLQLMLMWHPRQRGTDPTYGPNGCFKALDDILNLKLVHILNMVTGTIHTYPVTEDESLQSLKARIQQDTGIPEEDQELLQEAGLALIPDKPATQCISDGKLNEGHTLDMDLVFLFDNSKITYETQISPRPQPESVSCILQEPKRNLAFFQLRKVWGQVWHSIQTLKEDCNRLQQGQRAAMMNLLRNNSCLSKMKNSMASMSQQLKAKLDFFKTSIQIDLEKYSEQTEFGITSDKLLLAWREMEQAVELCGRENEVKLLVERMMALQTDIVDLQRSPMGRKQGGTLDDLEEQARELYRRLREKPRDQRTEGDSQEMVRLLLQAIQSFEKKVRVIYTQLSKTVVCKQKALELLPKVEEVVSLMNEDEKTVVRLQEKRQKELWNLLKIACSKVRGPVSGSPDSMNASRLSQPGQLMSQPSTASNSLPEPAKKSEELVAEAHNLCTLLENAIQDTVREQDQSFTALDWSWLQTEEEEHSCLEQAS

[7] = target: Transcription initiation factor TFIID subunit 1-like (Homo sapiens) (UniProt Q8IZX4)
[8] = target: G protein-coupled receptor kinase 5 (Homo sapiens) (UniProt P34947)
[9] = target: T3, NUAK family SNF1-like kinase 1 (Homo sapiens) (UniProt O60285)
T3 sequence (whole entry): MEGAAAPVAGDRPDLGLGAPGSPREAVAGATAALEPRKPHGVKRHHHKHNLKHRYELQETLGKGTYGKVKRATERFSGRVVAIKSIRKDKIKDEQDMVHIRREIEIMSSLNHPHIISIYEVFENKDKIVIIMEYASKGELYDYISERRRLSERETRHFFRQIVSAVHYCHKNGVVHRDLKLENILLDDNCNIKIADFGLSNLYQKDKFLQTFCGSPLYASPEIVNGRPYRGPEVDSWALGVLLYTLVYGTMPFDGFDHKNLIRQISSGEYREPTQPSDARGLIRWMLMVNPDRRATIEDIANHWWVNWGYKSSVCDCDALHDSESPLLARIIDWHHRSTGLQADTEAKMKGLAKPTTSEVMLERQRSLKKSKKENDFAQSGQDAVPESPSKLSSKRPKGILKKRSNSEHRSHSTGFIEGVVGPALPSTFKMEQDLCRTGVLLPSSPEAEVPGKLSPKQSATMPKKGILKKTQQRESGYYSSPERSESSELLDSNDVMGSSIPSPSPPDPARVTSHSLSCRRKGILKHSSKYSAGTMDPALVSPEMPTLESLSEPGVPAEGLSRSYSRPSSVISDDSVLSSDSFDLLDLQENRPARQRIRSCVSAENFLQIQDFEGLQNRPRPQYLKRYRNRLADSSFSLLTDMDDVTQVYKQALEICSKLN

[10] = target: Cyclin-dependent kinase-like 3 (Homo sapiens) (UniProt Q8IVW4)
Cyclin-dependent kinase-like 3 (Homo sapiens), sequence (Q8IVW4 whole entry, looked up, the tested form may be a part): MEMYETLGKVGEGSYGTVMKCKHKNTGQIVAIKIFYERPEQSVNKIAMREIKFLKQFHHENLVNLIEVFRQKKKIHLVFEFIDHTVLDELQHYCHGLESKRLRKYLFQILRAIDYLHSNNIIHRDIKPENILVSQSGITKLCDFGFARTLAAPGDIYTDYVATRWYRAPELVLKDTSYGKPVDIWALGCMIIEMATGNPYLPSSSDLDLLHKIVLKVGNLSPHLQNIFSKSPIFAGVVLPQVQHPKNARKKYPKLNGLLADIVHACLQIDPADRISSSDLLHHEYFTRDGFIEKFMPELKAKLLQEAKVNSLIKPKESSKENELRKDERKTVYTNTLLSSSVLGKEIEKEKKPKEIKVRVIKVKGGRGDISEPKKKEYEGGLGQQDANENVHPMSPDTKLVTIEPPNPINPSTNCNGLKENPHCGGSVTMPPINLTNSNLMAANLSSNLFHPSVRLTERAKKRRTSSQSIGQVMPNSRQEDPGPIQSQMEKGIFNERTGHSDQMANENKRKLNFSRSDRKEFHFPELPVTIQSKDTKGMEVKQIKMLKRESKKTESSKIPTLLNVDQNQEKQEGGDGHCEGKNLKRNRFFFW

[11] = target: Phosphatidylinositol 4-phosphate 3-kinase C2 domain-containing subunit alpha (Homo sapiens) (UniProt O00443)
[12] = target: High affinity nerve growth factor receptor (Homo sapiens) (UniProt P04629)
High affinity nerve growth factor receptor (Homo sapiens), sequence (P04629 33-796 limits assumed): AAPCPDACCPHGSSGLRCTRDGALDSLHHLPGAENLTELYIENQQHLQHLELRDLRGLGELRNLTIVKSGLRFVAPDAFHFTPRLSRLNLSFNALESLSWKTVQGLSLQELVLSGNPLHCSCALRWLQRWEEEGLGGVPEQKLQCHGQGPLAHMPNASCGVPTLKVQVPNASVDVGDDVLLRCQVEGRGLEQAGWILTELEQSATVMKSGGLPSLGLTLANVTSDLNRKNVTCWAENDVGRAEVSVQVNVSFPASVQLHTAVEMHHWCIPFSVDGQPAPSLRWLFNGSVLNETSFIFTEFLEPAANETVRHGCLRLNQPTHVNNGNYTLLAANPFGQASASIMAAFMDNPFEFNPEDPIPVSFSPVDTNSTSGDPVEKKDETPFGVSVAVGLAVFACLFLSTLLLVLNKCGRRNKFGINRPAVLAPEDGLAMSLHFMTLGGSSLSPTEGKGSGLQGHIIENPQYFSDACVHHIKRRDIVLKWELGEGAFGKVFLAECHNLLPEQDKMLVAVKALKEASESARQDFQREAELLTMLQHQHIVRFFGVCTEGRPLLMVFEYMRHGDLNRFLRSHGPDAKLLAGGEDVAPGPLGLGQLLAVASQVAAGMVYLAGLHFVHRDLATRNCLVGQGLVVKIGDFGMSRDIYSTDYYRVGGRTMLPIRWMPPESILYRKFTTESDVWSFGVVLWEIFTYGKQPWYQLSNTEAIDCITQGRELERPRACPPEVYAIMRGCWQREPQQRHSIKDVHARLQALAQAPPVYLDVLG

[13] = target: Serine/threonine-protein kinase Nek6 (Homo sapiens) (UniProt Q9HC98)
Serine/threonine-protein kinase Nek6 (Homo sapiens), sequence (Q9HC98 whole entry): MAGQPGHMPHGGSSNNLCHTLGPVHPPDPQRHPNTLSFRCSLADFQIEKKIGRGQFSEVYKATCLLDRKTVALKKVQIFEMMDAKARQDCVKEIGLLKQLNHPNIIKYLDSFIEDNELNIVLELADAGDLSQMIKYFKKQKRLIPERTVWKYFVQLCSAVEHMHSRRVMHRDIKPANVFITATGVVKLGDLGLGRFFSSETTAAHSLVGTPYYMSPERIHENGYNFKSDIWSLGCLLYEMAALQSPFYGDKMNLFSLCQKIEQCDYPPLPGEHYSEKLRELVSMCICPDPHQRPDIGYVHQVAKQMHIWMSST

[14] = target: Ribosomal protein S6 kinase alpha-4 (Homo sapiens) (UniProt O75676)
Ribosomal protein S6 kinase alpha-4 (Homo sapiens), sequence (O75676 whole entry, looked up): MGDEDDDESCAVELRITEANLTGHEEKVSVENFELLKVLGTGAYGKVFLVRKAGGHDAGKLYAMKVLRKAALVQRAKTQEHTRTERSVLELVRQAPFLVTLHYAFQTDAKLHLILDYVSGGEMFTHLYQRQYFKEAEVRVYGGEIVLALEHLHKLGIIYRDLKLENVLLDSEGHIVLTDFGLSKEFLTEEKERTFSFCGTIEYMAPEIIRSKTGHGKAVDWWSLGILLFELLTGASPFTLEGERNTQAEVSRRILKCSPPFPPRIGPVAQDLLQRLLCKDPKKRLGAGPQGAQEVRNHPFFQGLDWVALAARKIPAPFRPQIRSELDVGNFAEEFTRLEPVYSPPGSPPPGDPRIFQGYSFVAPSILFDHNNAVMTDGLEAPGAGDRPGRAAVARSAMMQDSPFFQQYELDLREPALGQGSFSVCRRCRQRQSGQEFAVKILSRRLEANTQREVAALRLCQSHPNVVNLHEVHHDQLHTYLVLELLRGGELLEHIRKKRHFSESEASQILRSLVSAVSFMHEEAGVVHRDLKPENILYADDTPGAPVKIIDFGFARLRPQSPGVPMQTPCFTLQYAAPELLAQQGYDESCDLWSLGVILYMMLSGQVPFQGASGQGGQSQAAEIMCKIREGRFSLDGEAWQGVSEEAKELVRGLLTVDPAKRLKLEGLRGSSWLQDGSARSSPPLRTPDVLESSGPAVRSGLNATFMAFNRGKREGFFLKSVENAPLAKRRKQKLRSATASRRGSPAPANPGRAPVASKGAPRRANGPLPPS

[15] = target: Tyrosine-protein kinase Srms (Homo sapiens) (UniProt Q9H3Y6)
[16] = target: Mitogen-activated protein kinase kinase kinase 9 (Homo sapiens) (UniProt P80192)
Mitogen-activated protein kinase kinase kinase 9 (Homo sapiens), sequence (P80192 whole entry, looked up): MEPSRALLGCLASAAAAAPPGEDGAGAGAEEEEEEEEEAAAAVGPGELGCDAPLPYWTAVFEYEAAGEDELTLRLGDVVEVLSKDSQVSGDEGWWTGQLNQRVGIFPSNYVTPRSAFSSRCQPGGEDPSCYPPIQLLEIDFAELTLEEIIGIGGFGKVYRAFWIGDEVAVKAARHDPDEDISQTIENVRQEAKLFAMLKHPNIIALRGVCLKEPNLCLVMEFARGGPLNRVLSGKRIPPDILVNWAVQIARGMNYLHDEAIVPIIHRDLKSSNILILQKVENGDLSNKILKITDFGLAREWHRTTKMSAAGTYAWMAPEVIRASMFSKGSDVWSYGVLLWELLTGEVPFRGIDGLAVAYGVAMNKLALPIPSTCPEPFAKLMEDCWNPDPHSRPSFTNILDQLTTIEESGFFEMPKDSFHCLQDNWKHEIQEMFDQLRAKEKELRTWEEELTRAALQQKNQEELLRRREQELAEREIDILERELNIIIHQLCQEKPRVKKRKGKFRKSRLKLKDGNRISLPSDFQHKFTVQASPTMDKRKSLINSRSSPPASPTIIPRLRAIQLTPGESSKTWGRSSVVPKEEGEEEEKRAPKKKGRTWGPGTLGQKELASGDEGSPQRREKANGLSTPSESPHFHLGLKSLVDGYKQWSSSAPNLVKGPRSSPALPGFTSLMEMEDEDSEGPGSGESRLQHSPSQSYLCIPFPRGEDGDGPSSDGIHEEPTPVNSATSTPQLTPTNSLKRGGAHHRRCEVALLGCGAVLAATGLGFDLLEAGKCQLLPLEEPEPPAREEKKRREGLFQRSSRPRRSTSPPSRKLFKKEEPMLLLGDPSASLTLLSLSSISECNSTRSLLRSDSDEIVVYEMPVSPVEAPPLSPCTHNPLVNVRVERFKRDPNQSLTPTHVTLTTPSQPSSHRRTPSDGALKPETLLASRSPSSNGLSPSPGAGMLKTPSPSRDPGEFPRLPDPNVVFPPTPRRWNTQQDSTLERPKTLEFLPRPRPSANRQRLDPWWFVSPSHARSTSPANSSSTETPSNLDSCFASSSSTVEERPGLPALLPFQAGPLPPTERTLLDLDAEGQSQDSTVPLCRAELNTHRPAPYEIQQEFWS

[17] = target: Mitogen-activated protein kinase kinase kinase 20 (Homo sapiens) (UniProt Q9NYL2)
[18] = target: PI3-kinase p110-alpha/p85-alpha (Homo sapiens) (UniProt P27986+P42336)

Measured: % residual kinase activity

CN1CCN(c2cnc3c(C4CCN(C(=O)c5ccc(OC(F)(F)F)cc5N)CC4)ncnc3c2)CC1 [BAY-885]
inactive: [1] 106% | [2] 115% | [3] 118% | [4] 96% | [5] 108% | [6] 106% | [7] 120% | [8] 85% | [9] 101% | [10] 113% | [11] 96% | [12] 110% | [13] 125% | [14] 107% | [15] 81% | [16] 108% | [17] 100% | [18] 98%
